Test results from ChEMBL document CHEMBL1156714, “Microwave induced synthesis of novel 8,9-dihydro-7H-pyrimido[4,5-b][1,4]diazepines as potential antitumor agents” (2008).
The source made the active and inactive calls. The rule behind the calls is not given here.

How the values were obtained:
[1] = tested on: NCI-60; test: Growth inhibition of human NCI-60 cells at 1.0 uM; format: functional, cell-based
[2] = Growth inhibition of human HL60(TB) cells after 48 hrs by SRB assay; format: functional, HL-60(TB); settings: Homo sapiens, HL-60, 48 h
[3] = tested on: MOLT-4; test: Growth inhibition of human MOLT4 cells after 48 hrs by SRB assay; format: functional; settings: MOLT-4, 48 h
[4] = tested on: SR; test: Growth inhibition of human SR cells after 48 hrs by SRB assay; format: functional
[5] = tested on: A549; test: Growth inhibition of human A549 cells after 48 hrs by SRB assay; format: functional; settings: A549, 48 h
[6] = tested on: EKVX; test: Growth inhibition of human EKVX cells after 48 hrs by SRB assay; format: functional
[7] = tested on: NCI-H226; test: Growth inhibition of human NCI-H226 cells after 48 hrs by SRB assay; format: functional; settings: NCI-H226, 48 h
[8] = tested on: NCI-H322M; test: Growth inhibition of human NCI-H322M cells after 48 hrs by SRB assay; format: functional
[9] = tested on: NCI-H460; test: Growth inhibition of human NCI-H460 cells after 48 hrs by SRB assay; format: functional; settings: NCI-H460, 48 h
[10] = tested on: NCI-H522; test: Growth inhibition of human NCI-H522 cells after 48 hrs by SRB assay; format: functional; settings: NCI-H522, 48 h
[11] = tested on: COLO 205; test: Growth inhibition of human COLO205 cells after 48 hrs by SRB assay; format: functional; settings: COLO 205, 48 h
[12] = tested on: HCC 2998; test: Growth inhibition of human HCC2998 cells after 48 hrs by SRB assay; format: functional; settings: HCC 2998, 48 h
[13] = tested on: HCT-15; test: Growth inhibition of human HCT15 cells after 48 hrs by SRB assay; format: functional; settings: HCT-15, 48 h
[14] = tested on: HT-29; test: Growth inhibition of human HT29 cells after 48 hrs by SRB assay; format: functional; settings: HT-29, 48 h
[15] = tested on: KM12; test: Growth inhibition of human KM12 cells after 48 hrs by SRB assay; format: functional; settings: KM12, 48 h
[16] = tested on: SF-268; test: Growth inhibition of human SF268 cells after 48 hrs by SRB assay; format: functional; settings: SF-268, 48 h
[17] = tested on: SF-539; test: Growth inhibition of human SF539 cells after 48 hrs by SRB assay; format: functional; settings: SF-539, 48 h
[18] = tested on: SNB-75; test: Growth inhibition of human SNB75 cells after 48 hrs by SRB assay; format: functional; settings: SNB-75, 48 h
[19] = tested on: U-251; test: Growth inhibition of human U251 cells after 48 hrs by SRB assay; format: functional; settings: U-251, 48 h
[20] = tested on: LOX IMVI; test: Growth inhibition of human LOX IMVI cells after 48 hrs by SRB assay; format: functional
[21] = tested on: Malme-3M; test: Growth inhibition of human MALME-3M cells after 48 hrs by SRB assay; format: functional
[22] = tested on: SK-MEL-5; test: Growth inhibition of human SK-MEL-5 cells after 48 hrs by SRB assay; format: functional; settings: SK-MEL-5, 48 h
[23] = tested on: UACC-62; test: Growth inhibition of human UACC62 cells after 48 hrs by SRB assay; format: functional; settings: UACC-62, 48 h
[24] = tested on: IGROV-1; test: Growth inhibition of human IGROV1 cells after 48 hrs by SRB assay; format: functional; settings: IGROV-1, 48 h
[25] = Growth inhibition of human OVACR3 cells after 48 hrs by SRB assay; format: functional
[26] = Growth inhibition of human OVACR4 cells after 48 hrs by SRB assay; format: functional
[27] = Growth inhibition of human […] cells after 48 hrs by SRB assay; format: functional
[28] = tested on: SK-OV-3; test: Growth inhibition of human SK-OV-3 cells after 48 hrs by SRB assay; format: functional; settings: SK-OV-3, 48 h
[29] = tested on: A498; test: Growth inhibition of human A498 cells after 48 hrs by SRB assay; format: functional; settings: A498, 48 h
[30] = tested on: ACHN; test: Growth inhibition of human ACHN cells after 48 hrs by SRB assay; format: functional
[31] = tested on: CAKI-1; test: Growth inhibition of human CAKI1 cells after 48 hrs by SRB assay; format: functional; settings: CAKI-1, 48 h
[32] = tested on: RXF 393; test: Growth inhibition of human […] cells after 48 hrs by SRB assay; format: functional; settings: RXF 393, 48 h
[33] = tested on: SN12C; test: Growth inhibition of human SN12C cells after 48 hrs by SRB assay; format: functional
[34] = tested on: TK-10; test: Growth inhibition of human TK10 cells after 48 hrs by SRB assay; format: functional; settings: TK-10, 48 h
[35] = tested on: UO-31; test: Growth inhibition of human UO31 cells after 48 hrs by SRB assay; format: functional; settings: UO-31, 48 h
[36] = tested on: DU-145; test: Growth inhibition of human DU145 cells after 48 hrs by SRB assay; format: functional; settings: DU-145, 48 h
[37] = tested on: MCF7; test: Growth inhibition of human MCF7 cells after 48 hrs by SRB assay; format: functional; settings: MCF7, 48 h
[38] = tested on: NCI/ADR-RES; test: Growth inhibition of human NCI/ADR-RES cells after 48 hrs by SRB assay; format: functional
[39] = tested on: MDA-MB-231; test: Growth inhibition of human MDA-MB-231 cells after 48 hrs by SRB assay; format: functional; settings: MDA-MB-231, 48 h
[40] = tested on: Hs-578T; test: Growth inhibition of human HS578T cells after 48 hrs by SRB assay; format: functional
[41] = tested on: T47D; test: Growth inhibition of human T47D cells after 48 hrs by SRB assay; format: functional
[42] = tested on: MDA-MB-468; test: Growth inhibition of human MDA-MB-468 cells after 48 hrs by SRB assay; format: functional; settings: MDA-MB-468, 48 h
[43] = read-out: LC50 (the source's name)

**Q.** Which Activity [1] does the source give for `Cc1ccc(C2=Nc3c(N)ncnc3NC(c3ccc4c(c3)OCO4)C2)cc1` (racemic) here?
**A.** Active

**Q.** And the GI50 [2]?
**A.** 0.72 µM

**Q.** And the CC50 [2, 43]?
**A.** > 100 µM

**Q.** And the GI50 [3]?
**A.** 2.66 µM

**Q.** What about the CC50 [3, 43] of the same molecule?
**A.** > 100 µM

**Q.** And the GI50 [4]?
**A.** 0.25 µM

**Q.** And the LC50 (concentration killing 50% of cells) [4]?
**A.** > 100 µM

**Q.** What about the GI50 [5] of the same molecule?
**A.** 7.09 µM

**Q.** And the LC50 [5]?
**A.** > 100 µM

**Q.** What about the GI50 [6] of the same molecule?
**A.** 16.2 µM

**Q.** And the CC50 [6, 43]?
**A.** > 100 µM

**Q.** What about the GI50 [7] of the same molecule?
**A.** 12.6 µM

**Q.** What about the CC50 [7, 43] of the same molecule?
**A.** > 100 µM

**Q.** What about the GI50 [8] of the same molecule?
**A.** 16.5 µM

**Q.** What about the CC50 [8, 43] of the same molecule?
**A.** > 100 µM

**Q.** And the GI50 [9]?
**A.** 3.59 µM

**Q.** And the CC50 [9, 43]?
**A.** > 100 µM

**Q.** And the GI50 [10]?
**A.** 3.67 µM

**Q.** What about the CC50 [10, 43] of the same molecule?
**A.** > 100 µM

**Q.** And the GI50 [11]?
**A.** 3.47 µM

**Q.** And the CC50 [11, 43]?
**A.** > 100 µM

**Q.** And the GI50 [12]?
**A.** 6.29 µM

**Q.** What about the LC50 (concentration killing 50% of cells) [12] of the same molecule?
**A.** > 100 µM

**Q.** What about the GI50 [13] of the same molecule?
**A.** 3.14 µM

**Q.** And the CC50 [13, 43]?
**A.** 55.2 µM

**Q.** And the GI50 [14]?
**A.** 3.81 µM

**Q.** What about the CC50 [14, 43] of the same molecule?
**A.** > 100 µM

**Q.** And the GI50 [15]?
**A.** 3.79 µM

**Q.** What about the CC50 [15, 43] of the same molecule?
**A.** 75.1 µM

**Q.** What about the GI50 [16] of the same molecule?
**A.** 4.06 µM

**Q.** And the LC50 (50% lethal concentration) [16]?
**A.** 52.2 µM

**Q.** And the GI50 [17]?
**A.** 4.98 µM

**Q.** And the CC50 [17, 43]?
**A.** 69.9 µM

**Q.** And the GI50 [18]?
**A.** 4.55 µM

**Q.** What about the CC50 [18, 43] of the same molecule?
**A.** > 100 µM

**Q.** And the GI50 [19]?
**A.** 4.55 µM

**Q.** And the CC50 [19, 43]?
**A.** 44.5 µM

**Q.** And the GI50 [20]?
**A.** 6.38 µM

**Q.** And the CC50 [20, 43]?
**A.** 81.5 µM

**Q.** What about the GI50 [21] of the same molecule?
**A.** 3.01 µM

**Q.** What about the CC50 [21, 43] of the same molecule?
**A.** > 100 µM

**Q.** And the GI50 [22]?
**A.** 3.85 µM

**Q.** What about the CC50 [22, 43] of the same molecule?
**A.** > 100 µM

**Q.** What about the GI50 [23] of the same molecule?
**A.** 4.09 µM

**Q.** And the CC50 [23, 43]?
**A.** > 100 µM

**Q.** What about the GI50 [24] of the same molecule?
**A.** 3.34 µM

**Q.** And the CC50 [24, 43]?
**A.** > 100 µM

**Q.** And the GI50 [25]?
**A.** 2.75 µM

**Q.** What about the LC50 [25] of the same molecule?
**A.** 23.3 µM

**Q.** What about the GI50 [26] of the same molecule?
**A.** 17.7 µM

**Q.** And the LC50 [26]?
**A.** > 100 µM

**Q.** What about the GI50 [27] of the same molecule?
**A.** 13.5 µM

**Q.** What about the CC50 [27, 43] of the same molecule?
**A.** > 100 µM

**Q.** What about the GI50 [28] of the same molecule?
**A.** 15.8 µM

**Q.** What about the CC50 [28, 43] of the same molecule?
**A.** > 100 µM

**Q.** And the GI50 [29]?
**A.** 6.33 µM

**Q.** What about the LC50 [29] of the same molecule?
**A.** > 100 µM

**Q.** And the GI50 [30]?
**A.** 7.74 µM

**Q.** And the LC50 (lethal concentration 50%) [30]?
**A.** > 100 µM

**Q.** And the GI50 [31]?
**A.** 1.44 µM

**Q.** What about the CC50 [31, 43] of the same molecule?
**A.** > 100 µM

**Q.** And the GI50 [32]?
**A.** 3.5 µM

**Q.** What about the CC50 [32, 43] of the same molecule?
**A.** > 100 µM

**Q.** What about the GI50 [33] of the same molecule?
**A.** 8.61 µM

**Q.** What about the CC50 [33, 43] of the same molecule?
**A.** > 100 µM

**Q.** What about the GI50 [34] of the same molecule?
**A.** 4.47 µM

**Q.** And the CC50 [34, 43]?
**A.** 69.7 µM

**Q.** And the GI50 [35]?
**A.** 10.8 µM

**Q.** What about the CC50 [35, 43] of the same molecule?
**A.** 65.2 µM

**Q.** And the GI50 [36]?
**A.** 4.52 µM

**Q.** What about the CC50 [36, 43] of the same molecule?
**A.** 46.7 µM

**Q.** What about the GI50 [37] of the same molecule?
**A.** 3.42 µM

**Q.** And the LC50 [37]?
**A.** > 100 µM

**Q.** And the GI50 [38]?
**A.** 3.52 µM

**Q.** And the CC50 [38, 43]?
**A.** > 100 µM

**Q.** And the GI50 [39]?
**A.** 4.37 µM

**Q.** And the CC50 [39, 43]?
**A.** 55.6 µM

**Q.** And the GI50 [40]?
**A.** 7.28 µM

**Q.** And the CC50 [40, 43]?
**A.** > 100 µM

**Q.** What about the GI50 [41] of the same molecule?
**A.** 5.72 µM

**Q.** And the CC50 [41, 43]?
**A.** > 100 µM

**Q.** And the GI50 [42]?
**A.** 3.68 µM

**Q.** And the CC50 [42, 43]?
**A.** > 100 µM
